Data published in ChEMBL document CHEMBL5131522, “3-Pyrrolidine-indole Derivatives as 5-HT2-Selective Receptor Modulators for the Potential Treatment of Mental Disorders” (ACS Med Chem Lett, 2022).

target: 5-hydroxytryptamine receptor 2A (Homo sapiens, UniProt P28223); assay: Agonist activity at human 5-HT2A receptor expressed in cells assessed as increase in calcium mobilization by Calcium-6 dye based FLIPR assay; type: functional, cell-based
Sequence (P28223 whole entry): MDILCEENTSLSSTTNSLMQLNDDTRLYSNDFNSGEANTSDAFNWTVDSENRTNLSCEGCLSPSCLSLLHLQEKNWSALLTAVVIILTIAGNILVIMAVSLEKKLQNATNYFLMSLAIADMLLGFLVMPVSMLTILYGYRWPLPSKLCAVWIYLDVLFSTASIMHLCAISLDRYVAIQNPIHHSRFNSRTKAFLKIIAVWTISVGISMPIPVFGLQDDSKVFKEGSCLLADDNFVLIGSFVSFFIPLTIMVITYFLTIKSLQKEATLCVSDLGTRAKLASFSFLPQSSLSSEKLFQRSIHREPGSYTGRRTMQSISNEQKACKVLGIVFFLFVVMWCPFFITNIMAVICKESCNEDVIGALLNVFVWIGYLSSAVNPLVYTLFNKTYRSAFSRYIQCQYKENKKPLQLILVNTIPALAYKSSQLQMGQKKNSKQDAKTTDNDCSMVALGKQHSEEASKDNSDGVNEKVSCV

| Compound | EC50 [nM] |
| --- | --- |
| Oc1cccc2[nH]cc(C[C@H]3CCCN3)c12 | < 1000 |
| [2H]C([2H])(c1c[nH]c2cccc(OC)c12)[C@H]1CCCN1C([2H])([2H])[2H] | < 1000 |
| [2H]C([2H])(c1c[nH]c2cccc(F)c12)[C@H]1CCCN1 | 1000 |
| [2H]C([2H])([2H])N1CCC[C@H]1Cc1c[nH]c2cccc(OCc3ccccc3)c12 | < 10000 |
| [2H]C([2H])(c1c[nH]c2cccc(O)c12)[C@H]1CCCN1C([2H])([2H])[2H] | < 1000 |
| [2H]C([2H])([2H])N1CCC[C@@H]1Cc1c[nH]c2cccc(O)c12 | < 1000 |
| [2H]C([2H])(c1c[nH]c2cccc(F)c12)[C@H]1CCCN1C([2H])([2H])[2H] | < 1000 |
| [2H]C([2H])(c1c[nH]c2cccc(O)c12)[C@@H]1CCCN1 | < 1000 |
| [2H]C([2H])([2H])N1CCC[C@@H]1Cc1c[nH]c2cccc(F)c12 | < 1000 |
| CN1CCC[C@@H]1Cc1c[nH]c2cccc(O)c12 | < 1000 |
